According to patent US10494405B2, “Methods and compositions for the treatment of arthritis” (THE REGENTS OF THE UNIVERSITY OF MICHIGAN, priority 2015, dated 2019):
Numbered stars: 1 amine (or outer) side, 2 acyl side, 3 side chain; on linkers, the order of the positions; unused ones are H or OH. Bridge positions count the residues as written; N and C are the ends. Square brackets hold non-standard residues; d marks the D form. Peptide text beside a SMILES is read from it. CO = O=C([*:1])[*:2]; Nlys = NCCCCNCC(=O)O

Experiments:
human cells = experiment: In vitro osteoclastogenesis, human cells; type: cell-based
[1] = tested on: murine pre-OC cell line RAW 264.7; experiment: In vitro osteoclastogenesis, mouse cells (RAW 264.7); type: cell-based
From the text: In vitro osteoclastogenesis of murine pre-OC cell line RAW 264.7 in the presence of different doses of BK2.

SE-activated signaling = experiment: Inhibition of SE-activated signaling in vitro; type: cell-based; conditions: read-out: IC50, inhibitor of SE-activated signaling
DBA/1 mice with CIA = experiment: Collagen-induced arthritis (CIA) in DBA/1 mice; type: in vivo, mouse
Method: A. DBA/1 mice with CIA received weekly ip doses of BK2, 446 pg/gm, or PBS (black) starting on day −1 relative to day of CIA induction, and joint swelling was recorded. N=10 per group. B. DBA/1 mice with CIA received a total of 4 weekly ip doses of BK2, 446 pg/gm, or PBS (black) starting at day 20 relative to day of CIA induction, at the time of arthritis onset, and joint swelling was recorded. Arrows indicate the treatment days. N=10 per group. C. DBA/1 mice with CIA received weekly sq doses of BK2446 pg/gm, or PBS (black) starting at day −1 relative to day of CIA induction, and joint swelling was recorded. N=10 per group. […] E. DBA/1 mice with CIA received a total of 4 weekly sq doses of BK2, 446 pg/gm, or PBS (black) starting at day 20 relative to day of CIA induction, at the time of arthritis onset, and joint swelling was recorded. Arrows indicate the treatment days. N=10 per group.

- IC50 (SE-activated signaling): ~10 mM
Compound: C[C@H](NC(=O)CN1CCCCNC(=O)NCCCCN(C(=O)[C@@H](N)Cc2c[nH]c3ccccc23)CC(=O)N[C@@H](CC(=O)O)C(=O)N[C@@H](CCCCN)C(=O)N[C@@H](CO)C1=O)C(N)=O [BK2, Trp-c[Gly(4-aminobutyl)-Asp-Lys-Ser-Gly(4-aminobutyl)]-Ala-NH2] (H-W[Nlys]DKS[Nlys]A-NH2; linker 2-6 via CO)
- IC50 of anti-osteoclastogenic effect in vitro (human cells): pM-range
- IC50 of anti-osteoclastogenic effect in vitro [1]: pM-range
- Inhibition of bone destruction in vivo (DBA/1 mice with CIA; CIA mice): inhibition effect
- Inhibition of osteoclastogenesis in vivo (DBA/1 mice with CIA; CIA mice): inhibition effect
- Inhibition effect on CIA (joint swelling) (DBA/1 mice with CIA; DBA/1 mice, weekly ip or sq 446 pg/gm, from day -1 or day 20): highly potent (picogram-range doses) inhibition effect
- Radiological scores (bone destruction) (DBA/1 mice with CIA; FIG. 3D: weekly sq 446 pg/gm starting day -1): protective effect on bone destruction
- Radiological scores (bone destruction) (DBA/1 mice with CIA; FIG. 3F: 4 weekly sq doses 446 pg/gm starting day 20 (arthritis onset)): protective effect on bone destruction
